Source: patent US20160184274A1, “Methods for inhibiting mesenchymal phenotype after epithelial-to-mesenchymal transition” (Fibrostatin, S.L., priority 2014, published 2016)

Target: T1, multimeric extracellular GPBP (Homo sapiens, UniProt Q9Y5P4)
T1 construct: made in house; host or cells: Sf9 insect cells (baculovirus), purified from culture medium
T1 sequence (Q9Y5P4 1-624): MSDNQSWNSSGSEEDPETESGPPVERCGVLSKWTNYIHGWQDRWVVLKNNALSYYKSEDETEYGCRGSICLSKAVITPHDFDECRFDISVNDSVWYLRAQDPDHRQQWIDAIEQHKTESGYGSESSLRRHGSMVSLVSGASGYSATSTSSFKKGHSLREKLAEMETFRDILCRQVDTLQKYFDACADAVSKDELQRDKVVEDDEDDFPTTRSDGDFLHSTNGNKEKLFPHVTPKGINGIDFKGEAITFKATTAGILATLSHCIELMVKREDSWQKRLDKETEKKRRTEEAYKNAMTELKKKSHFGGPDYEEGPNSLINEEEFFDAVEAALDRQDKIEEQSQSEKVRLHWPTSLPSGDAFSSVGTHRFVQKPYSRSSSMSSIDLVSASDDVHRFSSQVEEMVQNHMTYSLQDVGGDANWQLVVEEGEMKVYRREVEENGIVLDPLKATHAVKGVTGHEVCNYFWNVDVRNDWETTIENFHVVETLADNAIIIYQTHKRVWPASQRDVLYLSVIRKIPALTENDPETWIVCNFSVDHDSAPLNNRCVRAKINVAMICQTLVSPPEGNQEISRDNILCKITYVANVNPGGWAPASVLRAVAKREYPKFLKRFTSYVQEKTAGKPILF
Experiment: In vitro phosphorylation assay with multimeric extracellular GPBP
Type: biochemical
Settings: T12 50 μM; autophosphorylation, γ[32P]ATP; FIG. 2
Protocol: FIG. 2. […] Multimeric extracellular and trimeric intracellular GPBP were purified by affinity chromatography and subsequent gel filtration chromatography, and used for in vitro phosphorylation assays in absence (−) or presence (+) of T12 (50 μM). Reactions were subjected to SDS-PAGE, Western blot onto PVDF membrane and autoradiography, and further protein detected with anti-FLAG primary antibodies. Autoradiography and anti-FLAG® bands were quantified with WCIF IMAGEJ® software, and the normalized kinase activity estimated. Shown are normalized kinase activities. […] Samples were analyzed in triplicate and the data represents the Mean (±SEM) of three independent assays.
FLAG®-tagged GPBP was expressed using Bac-to-Bac® Baculovirus Expression System. […] Finally, purified protein was quantified with Bio-Rad Protein Assay and stored at −20° C. […]
Typically, about 270 ng of purified FLAG®-GPBP protein, either extracellular multimer or intracellular trimer, were incubated in presence or absence of T12 […] in a kinase assay buffer containing 25 mM disodium β-glycerophosphate, 8 mM MgCl2, 0.5 mM EDTA, 0.5 mM EGTA, 1 mM DTT, 5 mM MnCl2 during 10 min at 37° C. […] Then reactions were stopped with SDS-PAGE loading buffer and heat (95° C., 3 min) and analyzed by SDS-PAGE, electro-transference to PVDF membrane (Merck Millipore) and autoradiography. […]

COc1ccc(-c2ccc(-c3cccc(C)c3)c(C)c2)c(CCC(=O)O)c1 [T12, 3-[4″-methoxy-3,2′-dimethyl-(1,1′;4′,1″)terphenyl-2″-yl] propionic acid]
normalized kinase activity of GPBP: targeted extracellular GPBP multimer
